# How the values were obtained:
# [1] = system: Dnmt3a^−/−; Alpk1^−/− HSCs; experiment: ADP-heptose treatment of low-dose irradiated chimeric mice: donor HSC number, EdU proliferation, secondary transplant; assay type: in vivo, mouse
# From the text: To model pre-leukemic clonal hematopoiesis, chimeric mice were generated as aas follows. Briefly, mixture of 1×10^6 whole bone marrow cells (WBM) were obtained from Poly (I:C) treated wild-type (Dnmt3a^+/+; MxCre^+, called Dnmt3a^WT) or mutant mice (Dnmt3a^f/f; MxCre^+, called Dnmt3a^KO) or double mutant mice (Dnmt3a^f/f; MxCre^+; Alpk1^KO, called Dnmt3a^KO; Alpk1^KO) (CD45.2^+), and transplanted into low-dose (2.5 Gy) irradiated recipient mice (CD45.1^+; 6-10 weeks of age). 8 weeks post-transplant, chimeric mice were treated with either water (H2O) or DSS (2.5%) for 1 week, and allowed to recover for 1 more week on water after which flow cytometry was performed on BM. In separate experiment, chimeric mice were pre-treated with broad spectrum antibiotics (ABX) for 4 weeks, and then subjected to DSS for 1 week after which flow cytometry performed on BM. In a separate set of experiment, chimeric mice were treated with either H2O or ADP-heptose (0.5 mg/kg) for 2 weeks, and flow cytometry performed after 2 more weeks on BM. In all the experiments, secondary transplantation was performed by purifying donor HSCs (CD45.2^+Lin^−Sca-1^+c-Kit^+Flk2^−CD150^+CD48^−) and transplanting 100 HSCs with 200,000 helper WBM cells (CD45.1+) into lethally irradiated (8 Gy) recipient mice (CD45.1^+), and donor chimerism in PB examined by flow cytometry.
# [2] = system: Dnmt3a; Alpk1 deficient HSCs; experiment: Serial colony replating; assay type: cell-based, mouse
# Method: (§1) (A) Heatmap representing gene expression analysis of HSPCs isolated from Dnmt3a^WT or Dnmt3a^KO or Dnmt3a^KO; Alpk1^KO mice treated with either H2O or ADP-heptose for 90 minutes in vitro as determined by RNA-sequencing from three independent replicates (1.5 fold; P<0.05). (B) Gene Set Enrichment Analysis (GSEA) of Dnmt3a^KO cells treated with ADP-heptose versus H2O. […] NES, normalized enrichment score. Absolute enrichment score (ES) and corresponding P value are shown for each pathway. (D) Enrichment of transcription factors was determined with the ENCODE and CHIP Enrichment Analysis (ChEA) libraries using genes that are overexpressed in ADP-heptose-stimulated Dnmt3a^WT versus H2O-stimulated Dnmt3a^WT (left panel) or ADP-heptose-stimulated Dnmt3a^KO versus H2O-stimulated Dnmt3a^KO HSPCs (right panel). (E) Representative flow cytometric profile of EdU+HSCs after ADP-heptose or H2O treatment. […] In each plating, colonies were scored at day 14. […] (L) Colony forming potential of Dnmt3a^WT or Dnmt3a^KO HSPCs was evaluated upon treatment with either vehicle, ADP-heptose, or ADP-heptose and UBE2N inhibitor. (M) CD34+ MDS BM and normal CD34+ BM cells treated with vehicle, ADP-heptose, or ADP-heptose and UBE2N inhibitor were evaluated for colony formation in methylcellulose. […]
# Dnmt3a^−/− HSCs = experiment: Serial colony replating; assay type: cell-based, mouse; settings: compared to vehicle
# Method: as §1
# MDS BM cells = experiment: Patient derived xenograft in NSG mice treated with ADP-heptose; assay type: in vivo, human; settings: immunocompromised mice, after 28 days
# Method: NOD.Cg-Prkdc^scidIl2rg^tm1Wj1/SzJ (NSG)^75 were bred and maintained by the CCHMC Comprehensive Mouse Core. For patient derived xenografts, NSG mice (sub-lethally conditioned with 2 Gy of whole-body irradiation) were injected tail vein with healthy CD34+ cells (1×10^6 cells per mouse) and MDS patient cells (5×10^6 cells per mouse) in 200 μl of sterile PBS. Mice were then given sterile water or ADP-heptose (0.5 mg/kg) dissolved in sterile water at the indicated times. Mice were monitored for human engraftment in BM aspirates Briefly, 1×10^6 BM cells from each sample were incubated with huCD45 (Cat no. 555485, BDPharmingen) and huCD33 (Cat no. 555450, BDPharmingen) antibodies diluted 1:100 in a solution of PBS, 0.2% FBS for 30 minutes on ice. Cells were washed once with PBS, resuspended in PBS with 0.2% FBS, and immediately analyzed by flow cytometry.
compound,measurement,setting,value
"Nc1ncnc2c1ncn2[C@@H]1O[C@H](COP(=O)(O)OP(=O)(O)O[C@@H]2O[C@H]([C@H](O)CO)[C@@H](O)[C@H](O)[C@@H]2O)[C@@H](O)[C@H]1O [ADP-heptose, ADP-D-glycero-β-D-manno-heptose]",proliferation of HSCs in vivo (EdU),[1],completely abrogated
same,expansion and self-renewal in recipient mice,[1]; ADP-heptose administration,unable to expand nor self-renew
same,colony replating response to ADP-heptose,[2],did not respond
same,serial colony formation,Dnmt3a^−/− HSCs,significantly increased serial colony formation
same,expansion of xenografted MDS BM cells,MDS BM cells,expanded

# Reference: patent US20250314644A1, “METHODS COMPRISING DETECTION OF ADP-HEPTOSE” (CHILDREN'S HOSPITAL MEDICAL CENTER, priority 2023, published 2025)
